Data as given in patent publication US12715893B2, “Oxysterol compounds and uses thereof” (MAX BIOPHARMA, INC., priority 2020, dated 2026).

Assays:
[1] = tested on: Hh signaling; details: background statement; Compound 8 in mesenchymal cells; cited from earlier work
[2] = tested on: Hedgehog target gene Gli1; experiment: Expression of Hedgehog target gene Gli1 (quantitative RT-PCR) in NIH3T3 cells; type: cell-based; details: for effect on Hh signaling (relative expression of Gli1) / effect on Gli/Hh signaling in cells treated with Conditioned Medium (relative expression of Gli1): 5 μM and 10 μM; for effect on Hh signaling (relative expression of Gli1): vs DMSO control (FIG. 5); for effect on Gli/Hh signaling in cells treated with Conditioned Medium (relative expression of Gli1): CAPAN-1 conditioned medium (CM), vs CM (FIG. 5, FIG. 7)
Method: (§1) The compounds described herein were tested on cell cultures to assess their effects on the mRNA expression of Hedgehog target genes Gli1. Conditioned medium (CM) was collected from CAPAN-1 human pancreatic tumor cells grown to confluence in DMEM containing 10% fetal bovine serum (FBS) and contains Hh proteins that activate the Hh pathway in cells receiving the CM. After 7 days of incubation of confluent cells with the described medium, CM was collected, spun for 5 minutes at 1800 rpm to remove dead cells and debris, and then frozen at −80° C. For treating cells, CM was thawed and diluted 1:2 to 1:6 with DMEM containing 5% FBS. NIH3T3 cells and M2 cells were cultured in 12-well plates with DMEM containing 10% FBS. The cells were then treated with DMEM containing 5% FBS or CM in the presence or absence of the compounds prepared in DMSO when they reach confluence. Quantitative RT-PCR was then performed according to the following approach. After 72 to 96 hours of the treatments, the cells were lysed and subjected to RNA extraction with RNease Plus Min kit (Qiagen). A portion of RNA from each well was subjected to Reverse Transcription (RT) using iScript Reverse Transcription Supermix (BioRad). QPCR was performed to test the expression of Hh target gene Gli1 using IQ SYBR Green Supermix (BioRad).

[3] = tested on: Hedgehog target gene Gli1; experiment: Expression of Hedgehog target gene Gli1 (quantitative RT-PCR) in M2 cells; type: cell-based; details: 5% FBS in DMEM, 1 μM and 5 μM, vs DMSO control (FIG. 6)
Method: as §1

[4] = tested on: TGFβ signaling; details: background statement; cited from earlier work
[5] = tested on: Hedgehog target gene Gli1; experiment: Expression of Hedgehog target gene Gli1 (Q-RT-PCR, normalized to Oaz1) in C3H10T1/2 cells; type: cell-based; details: 5 μM and 10 μM, 72 hours (FIG. 9)
Method: as §1, with “A portion of RNA from each well was subjected to Reverse Transcription (RT) using iScript Reverse Transcription Supermix (BioRad). QPCR was performed to test the expression of Hh target gene Gli1 using IQ SYBR Green Supermix (BioRad).” left out
In a similar manner, C3H10T1/2 cells were pretreated for 2 hours with Compound 17 in DMEM containing 5% FBS. […] After 72 hours, RNA was extracted and analyzed by Q-RT-PCR for the expression of Hh target gene Gli1 and normalized to Oaz1 expression.

CC(C)CCC[C@](C)(O)[C@H]1CC[C@H]2[C@@H]3CC=C4C[C@@H](O)CC[C@]4(C)[C@H]3CC[C@@]21C [Compound 8, 20(S)-hydroxycholesterol]
effect on Hh signaling [1]: induces allosteric activation of Hh signaling

C[C@]12CC[C@H](O)C[C@@H]1CC[C@@H]1[C@@H]2CC[C@]2(C)[C@@H]([C@H](O)CCc3ccc(F)cc3)CC[C@@H]12 [Compound 2, (3S,5S,8R,9S,10S,13S,14S,17S)-17-((R)-3-(4-fluorophenyl)-1-hydroxypropyl)-10,13-dimethylhexadecahydro-1H-cyclopenta[a]phenanthren-3-ol]
effect on Hh signaling (relative expression of Gli1) ([2]; 5% FBS in DMEM): increase Hh signaling, although Compound 2 to a lesser degree than Compound 1 | effect on Gli/Hh signaling in cells treated with Conditioned Medium (relative expression of Gli1) [2]: weak Hh antagonist

CCCCCC[C@](C)(O)[C@H]1CC[C@H]2[C@@H]3C[C@H](O)[C@H]4C[C@@H](O)CC[C@]4(C)[C@H]3CC[C@@]21C [Compound 10, (3S,5S,6S,8R,9S,10R,13S,14S,17S)-17-((S)-2-hydroxyoctan-2-yl)-10,13-dimethylhexadecahydro-1H-cyclopenta[a]phenanthrene-3,6-diol, reference compound]
effect on Hh signaling [1]: Hh activator | effect on Gli signaling (relative expression of Gli1) [3]: stimulate Gli signaling

C[C@]12CC[C@H]3[C@@H](CC=C4C[C@@H](O)CC[C@@]43C)[C@@H]1CC[C@@H]2[C@H](O)CCc1ccc(F)cc1 [Compound 1, (3S,8S,9S,10R,13S,14S,17S)-17-((R)-3-(4-fluorophenyl)-1-hydroxypropyl)-10,13-dimethyl-2,3,4,7,8,9,10,11,12,13,14,15,16,17-tetradecahydro-1H-cyclopenta[a]phenanthren-3-ol]
effect on Hh signaling (relative expression of Gli1) ([2]; 5% FBS in DMEM): increase Hh signaling | effect on Gli signaling (relative expression of Gli1) [3]: stimulate Gli signaling

C[C@]12CC[C@H](O)C[C@@H]1CC[C@@H]1[C@@H]2CC[C@@]2(C)[C@H]1CC[C@@H]2[C@](C)(O)CCc1ccc(F)cc1 [Compound 11, (3S,5S,8R,9S,10S,13S,14S,17S)-17-((R)-4-(4-fluorophenyl)-2-hydroxybutan-2-yl)-10,13-dimethylhexadecahydro-1H-cyclopenta[a]phenanthren-3-ol]
effect on Hh signaling [1]: Hh inhibitors

C[C@]12CC[C@H]3[C@@H](CC=C4C[C@@H](O)CC[C@@]43C)[C@@H]1CC[C@@H]2[C@](C)(O)CCc1cccnc1 [Compound 12, (3S,8S,9S,10R,13S,14S,17S)-17-((R)-2-hydroxy-4-(pyridin-3-yl)butan-2-yl)-10,13-dimethyl-2,3,4,7,8,9,10,11,12,13,14,15,16,17-tetradecahydro-1H-cyclopenta[a]phenanthren-3-ol]
effect on TGFβ signaling [4]: blocks TGFβ signaling | effect on Hh signaling [1]: Hh inhibitors

CC[C@@](O)(CCc1cccnc1)[C@H]1CC[C@H]2[C@@H]3CC[C@H]4C[C@@H](O)CC[C@]4(C)[C@H]3CC[C@]12C [Compound 6, (3S,5S,8R,9S,10S,13S,14S,17S)-17-((R)-3-hydroxy-1-(pyridin-3-yl)pentan-3-yl)-10,13-dimethylhexadecahydro-1H-cyclopenta[a]phenanthren-3-ol]
effect on baseline expression of Gli ([2]; 5% FBS in DMEM, 10 μM, vs DMSO control (FIG. 8)): lowers the baseline expression of Gli | effect on Gli/Hh signaling in cells treated with Conditioned Medium (relative expression of Gli1) [2]: inhibits Gli signaling

C[C@]12CC[C@H](O)C[C@@H]1[C@@H](O)C[C@@H]1[C@@H]2CC[C@]2(C)[C@@H]([C@H](O)CCc3ccc(F)cc3)CC[C@@H]12 [Compound 5, (3S,5S,6S,8S,9S,10R,13S,14S,17S)-17-((R)-3-(4-fluorophenyl)-1-hydroxypropyl)-10,13-dimethylhexadecahydro-1H-cyclopenta[a]phenanthrene-3,6-diol]
effect on Gli signaling (relative expression of Gli1) [3]: stimulate Gli signaling

CC(C)CC[C@@H](O)[C@](C)(O)[C@H]1CC[C@H]2[C@@H]3CC=C4C[C@@H](O)CC[C@]4(C)[C@H]3CC[C@]12C [Compound 9, 20α,22(R)-dihydroxycholesterol]
effect on Hh signaling [1]: blocks Hh signaling

C[C@]12CC[C@H](O)C[C@@H]1CC[C@@H]1[C@@H]2CC[C@]2(C)[C@@H](C(CCc3ccc(F)cc3)=NO)CC[C@@H]12 [Compound 17, 3-(4-fluorophenyl)-1-((3S,5S,8R,9S,10S,13S,14S,17S)-3-hydroxy-10,13-dimethylhexadecahydro-1H-cyclopenta[a]phenanthren-17-yl)propan-1-one oxime]
effect on Hh signaling (relative expression of Gli1) ([5]; 5% FBS in DMEM): activator of Hh signaling | effect on conditioned medium induced Gli1 expression ([5]; CAPAN-1 CM, 2 hours pretreatment): further enhances the conditioned medium induced Gli1 expression
